Consider 1 compound from article PMC9540525 (Cancer, 2022).

The nature of data set [1]: Phase 1 study: plasma pharmacokinetics, noncompartmental analysis. It counts as in vivo, human.
Data set [2] has as its system MMD gene expression in peripheral blood. In words: Phase 1 study: MMD gene expression in peripheral blood. It counts as in vivo, human. The conditions noted are these: dose expansion, 60 mg once per week.
Data set [3] can be described thus: Phase 1 study: treatment duration, modification, exposure and disposition. Format: in vivo, human. The settings on record: dose expansion, NEN cohort, n=16.
For data set [4] the following is noted: dose escalation, cited from earlier work.
Data set [5] concerns solid tumor cell lines, including small cell lung cancer, and acute myeloid leukemia cell lines. The conditions noted are these: solid tumor cell lines incl. SCLC, and AML cell lines; cited from earlier work.
Data set [6] concerns patient‐derived xenograft models. The settings on record: cited from earlier work.

On to `COc1ccc(-c2c(-c3ccc(C#N)c(F)c3)nc(N3CCC(N)CC3)n(C)c2=O)cc1F` [CC‐90011], for which, in data set [1] (dose expansion, 60 mg once per week), the “accumulation with repeat dosing based on the AUC” value is “Negligible accumulation”. In addition, in data set [1] (dose expansion, NEN, n = 16, 60 mg once per week), the “time of peak CC-90011 concentration after treatment, approximate median” value is approximately 4 h. The terminal half-life result in data set [1] (in words) is “long terminal half‐life”. The “downregulation in MMD gene expression in the peripheral blood” value in data set [2] is reported as not below 50%. The “≥1 dose interruption due to AE” value in data set [3] was 10 (63%) n (%). Also, in data set [4], the dose-limiting toxicity entry is given as “Thrombocytopenia was the only dose‐limiting toxicity reported”. In data set [4] (once per week), the maximum tolerated dose is recorded as 80 mg, the nontolerated dose is given as 120 mg and the “recommended phase 2 dose (RP2D)” value is on record as 60 mg. For the same compound, the “antiproliferative activity in vitro” value in data set [5] is given as “has antiproliferative activity in various solid tumor cell lines in vitro”. Further, the “antiproliferative activity in patient-derived xenograft models” value in data set [6] is “demonstrated antiproliferative activity”.
